Assay results reported in patent US6362212B1, “Oxime derivative and bactericide containing the same as active ingredient” (Shionogi & Company, Ltd., priority 1994, dated 2002).

What was measured:
Type in all cases: in vivo
Pyricularia oryzae = conditions: foliage spray on rice seedlings (cv. […]), number of lesions six days after the inoculation
[1] = test system: Erysiphe graminis f. sp. tritici; assay: Controlling effect on Erysiphe graminis f. sp. tritici by foliage application (pot experiment); conditions: foliage spray on wheat (cv. NORIN No. 61) seedlings, infected area after 10 days in greenhouse at 20° C.
Protocol: The following Test Examples illustrate the effects of the fungicide of the present invention. (I. Controlling effects on various plant diseases by foliage application (pot experiment)) A test compound was dissolved in a small amount of N,N-dimethylformamide, and the solution was diluted to a given concentration with distilled water containing a spreader. Thus, a liquid sample to be tested was prepared. The liquid sample was sprayed to test plants, and 24 hours thereafter, pathogens were inoculated by the method described below. […] The seeds of wheat (cv.: NORIN No. 61) were sown in plastic cups (each 9 cm in diameter), followed by cultivation for 2 to 3 weeks. The test compound in the form of a solution or suspension was sprayed to the seedlings, and conidia of Erysiphe graminis f. sp. tritici cultured on wheat leaves were dropped on the test plants to inoculate the plants with the pathogen. After the inoculation, the plants were kept in a greenhouse at 20° C. for 10 days. The infected area on the leaf was observed, and the percent control was calculated.

Sphaerotheca fuliginea = assay: Controlling effect on Sphaerotheca fuliginea by foliage application (pot experiment); conditions: foliage spray on cucumber (cv. TSUKUBASHIROIBO) first leaves, infected area after 10 days in greenhouse at 20° C.
Protocol: The following Test Examples illustrate the effects of the fungicide of the present invention. (I. Controlling effects on various plant diseases by foliage application (pot experiment)) A test compound was dissolved in a small amount of N,N-dimethylformamide, and the solution was diluted to a given concentration with distilled water containing a spreader. Thus, a liquid sample to be tested was prepared. The liquid sample was sprayed to test plants, and 24 hours thereafter, pathogens were inoculated by the method described below. […] Seeds of cucumber ([…]) were sown in plastic cups (each 9 cm in diameter), followed by cultivation for 2 to 3 weeks. The liquid test sample in the form of a solution or suspension was sprayed on the surface of their first leaves. The pathogen was inoculated to the leaves by spraying a conidia suspension of Sphaerotheca fuliginea which had been cultured on the cucumber leaves. After the inoculation, the plants were kept in a greenhouse at 20° C. for 10 days. Then, the infected area on the leaf was observed, and the percent control was calculated.

Row | Structure (SMILES) | Controlling effect on PYricularia orYzae by foliage application at 500 ppm (percent control) (Pyricularia oryzae) | Controlling effect on ErYsiphe graminis f. sp. tritici by foliage application at 500 ppm (percent control) [1] [percent control] | Controlling effect on Sphaerotheca fuliginea by foliage application at 500 ppm (percent control) (Sphaerotheca fuliginea)
1 | CON=C(c1ccccc1COc1ccccc1OC)c1nccn1C (single isomer, unassigned) [118B] | 70 |  | 
2 | CON=C(c1ccccc1COc1ccc(Cl)cc1)n1cccn1 [compound 287] | 90 |  | 
3 | CON=C(c1ccccc1COc1cc(C)ccc1C)c1ccnn1C (single isomer, unassigned) [1554A] | 70 | 70 | 
4 | CON=C(c1ccccc1COc1ccccc1)n1ccnc1C [compound 241] | 70 |  | 
5 | CCON=C(c1ccccc1COc1ccccc1)n1cccn1 [compound 295] | 90 | 90 | 
6 | CON=C(c1ccccc1COc1cc(C)ccc1C)n1ccnc1 [Compound No. 39] | 70 |  | 100
7 | CON=C(c1ccccc1COc1ccc(Cl)cc1)c1nccn1C (single isomer, unassigned) [107A] | 90 | 70 | 100
8 | CON=C(c1ccccc1Oc1ccccc1)n1cccn1 [compound 300] | 70 |  | 70
9 | CON=C(c1ncon1)c1ccccc1COc1ccccc1C [Compound No. 812] | 70 | 100 | 100
10 | CON=C(C1=NCCO1)c1ccccc1COc1ccccc1C [compound 1310] | 70 | 90 | 90
11 | CON=C(C1=NCCN1)c1ccccc1COc1ccccc1C [compound 1460] | 90 | 90 | 
12 | CON=C(c1ccccc1COc1ccc(Cl)cc1C)c1nccn1C (single isomer, unassigned) [141B] | 70 |  | 100
13 | CON=C(c1ccccc1CON=C(C)c1ccccc1)n1ccnc1 [compound 3041] | 90 |  | 97
14 | CON=C(c1ccccc1COc1ccccc1Cl)n1cnc(C)c1 [compound 225] | 70 |  | 
15 | CON=C(c1cc(C)no1)c1ccccc1COc1ccccc1Cl (single isomer, unassigned) [605B] |  | 90 | 100
16 | CON=C(c1nnco1)c1ccccc1COc1ccc(Cl)cc1 [compound 707] |  | 90 | 100
17 | CON=C(C1=NCCS1)c1ccccc1COc1cc(C)ccc1C [compound 1514] |  | 70 | 97
18 | CON=C(C1=NCCO1)c1ccccc1COc1cccc(C)c1 [compound 1311] |  | 70 | 70
19 | CON=C(c1ccccc1COc1ccc(Cl)cc1)n1cnc(C)c1 [Compound No. 227] |  | 70 | 97
20 | CON=C(c1ncon1)c1ccccc1COc1cc(C)ccc1C (single isomer, unassigned) [836B] |  | 97 | 100
21 | O=C1OCc2c(Cl)c(Cl)c(Cl)c(Cl)c21 [Fthalide, reference compound] | 97 |  | 
22 | CON=C(c1ccccc1COc1ccccc1)n1cccn1 [compound 281] | 70 | 90 | 
23 | CON=C(C1=NCCN1)c1ccccc1COc1cccc(C)c1 (mixture of isomers) [compound 1461] | 70 |  | 
24 | CON=C(c1ncc[nH]1)c1ccccc1COc1cc(C)ccc1C [compound 1428] |  | 70 | 100
25 | CON=C(c1cnco1)c1ccccc1COc1cc(C)ccc1C [compound 1734] |  | 70 | 90
26 | CON=C(c1cnco1)c1ccccc1Oc1ccccc1 [compound 1735] |  | 97 | 100
27 | CON=C(c1ncno1)c1ccccc1COc1ccccc1 [compound 1581] | 70 |  | 70
28 | CON=C(C1=NCCN1C)c1ccccc1Oc1ccccc1 (mixture of isomers) [compound 1161] |  | 90 | 70
